This passage reports IC50 results from article PMC3519852, “Non-Traditional Antibacterial Screening Approaches for the Identification of Novel Inhibitors of the Glyoxylate Shunt in Gram-Negative Pathogens” (PLoS ONE, 2012).

The target of one assay is T1, MS (Pseudomonas aeruginosa, UniProt Q9I636).
T1 construct: gene glcB
In words: DTNB detection of coenzyme A at […] nm. Format: biochemical.

For a further assay, the target named is T2, ICL (Pseudomonas aeruginosa, UniProt Q9I0K4).
T2 construct: gene PA2634
T2 sequence (Q9I0K4 1-531): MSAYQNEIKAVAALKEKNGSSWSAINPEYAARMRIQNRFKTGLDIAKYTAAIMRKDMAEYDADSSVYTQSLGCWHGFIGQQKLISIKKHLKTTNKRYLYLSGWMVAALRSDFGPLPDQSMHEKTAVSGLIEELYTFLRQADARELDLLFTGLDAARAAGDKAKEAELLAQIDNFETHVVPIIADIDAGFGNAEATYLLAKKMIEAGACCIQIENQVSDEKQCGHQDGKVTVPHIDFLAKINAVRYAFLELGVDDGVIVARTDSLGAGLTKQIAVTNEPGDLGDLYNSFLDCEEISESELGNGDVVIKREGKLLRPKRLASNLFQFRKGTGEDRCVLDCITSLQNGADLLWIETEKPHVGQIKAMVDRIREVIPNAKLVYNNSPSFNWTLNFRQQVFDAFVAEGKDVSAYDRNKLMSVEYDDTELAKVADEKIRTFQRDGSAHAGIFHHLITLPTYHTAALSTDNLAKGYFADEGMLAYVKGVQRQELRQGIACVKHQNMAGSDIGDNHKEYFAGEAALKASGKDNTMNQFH
The experiment in a line: absorbance at […] nm, phenylhydrazine assay. It counts as biochemical.

pIC50: −log10 of the molar value.

T1 sequence (Q9I636 whole entry): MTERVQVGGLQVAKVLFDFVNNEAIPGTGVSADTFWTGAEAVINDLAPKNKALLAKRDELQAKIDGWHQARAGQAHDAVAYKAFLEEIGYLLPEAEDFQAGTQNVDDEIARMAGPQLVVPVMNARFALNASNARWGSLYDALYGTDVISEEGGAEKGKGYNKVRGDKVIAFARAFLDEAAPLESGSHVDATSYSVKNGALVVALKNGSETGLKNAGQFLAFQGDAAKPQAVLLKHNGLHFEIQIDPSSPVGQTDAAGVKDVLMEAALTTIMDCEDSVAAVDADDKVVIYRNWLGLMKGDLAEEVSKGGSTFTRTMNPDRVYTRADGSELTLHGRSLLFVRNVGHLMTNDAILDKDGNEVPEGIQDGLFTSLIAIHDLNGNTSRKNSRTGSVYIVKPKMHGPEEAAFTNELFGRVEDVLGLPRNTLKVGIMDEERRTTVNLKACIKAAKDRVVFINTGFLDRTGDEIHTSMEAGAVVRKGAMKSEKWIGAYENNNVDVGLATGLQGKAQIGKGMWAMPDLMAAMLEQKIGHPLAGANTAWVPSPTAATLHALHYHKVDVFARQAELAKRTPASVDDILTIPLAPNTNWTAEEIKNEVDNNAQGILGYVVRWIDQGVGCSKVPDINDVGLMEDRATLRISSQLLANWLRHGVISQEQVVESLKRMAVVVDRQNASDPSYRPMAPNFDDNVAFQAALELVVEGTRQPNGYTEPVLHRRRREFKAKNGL

In the case of `COc1ccccc1N1CCN(CCCNC(=O)C(Cc2ccc(F)c(F)c2)C(C)=O)CC1` (racemic) [compound 2, Compound 2], the pIC50 against MS is 5.75; at ICL, 6.62.

Turning to `Nc1nnc(SCc2ccc(O)c3ncccc23)s1` [compound 1, Compound 1], the pIC50 on MS is 6.74; at ICL, 6.16.

For the molecule `CC(C)(C)OC(=O)/N=C(\NC(=O)OC(C)(C)C)Nc1cc(Cl)ccn1` [compound 3, Compound 3], the results for the pIC50 against MS and against ICL were 5.28 and 6.77, respectively.

On to `CC(C)(C)OC(=O)NC(=Nc1cc(CCC(=O)O)ccn1)NC(=O)OC(C)(C)C` [compound 4, Compound 4], for which the values for the pIC50 against MS and against ICL were 5.89 and 7.52, respectively.

In the case of `N=C(N)Nc1cccc2ncccc12` [compound 7, Compound 7], the values for the pIC50 against MS and at ICL were 5.16 and 6.72, respectively.

With `N=C(N)Nc1ccc2nn[nH]c2c1` [compound 8, Compound 8], the pIC50 is 5.05 against MS and 6.43 on ICL.

For orientation: pIC50 means the negative decadic logarithm of the IC50, by convention in mol/L. Read a low pIC50 as a large IC50.
